Here are results for 2 molecules from ChEMBL document CHEMBL1126466, “Chemical synthesis of D-erythro-sphingosine-1-phosphate, and its inhibitory effect on cell motility” (1992).

Where “and” joins values, the source holds several entries; their conditions need not be identical. Equal entries are not always repeated.

Holding throughout (assay type): functional, B16/F1
A short description of test [1]: The compound was tested for inhibitory effect on motility of mouse melanoma B16/Fl cells in an in vitro Matri gel-coated transwell assay system at 1 uM concentration expressed as percent migration.
Test [2] is described as follows: The compound was tested for inhibitory effect on motility of mouse melanoma B16/Fl cells in an in vitro Matri gel-coated transwell assay system at 5 uM concentration expressed as percent migration.
A short description of test [3]: The compound was tested for inhibitory effect on motility of mouse melanoma B16/Fl cells in an in vitro Matri gel-coated transwell assay system at 1 uM concentration.
A short description of test [4]: The compound was tested for inhibitory effect on motility of mouse melanoma B16/Fl cells in an in vitro Matri gel-coated transwell assay system at 0.1 uM concentration expressed as percent migration.
A short description of test [5]: The compound was tested for inhibitory effect on motility of mouse melanoma B16/Fl cells in an in vitro Matri gel-coated transwell assay system at 0.001 uM concentration.
Test [6] can be described thus: The compound was tested for inhibitory effect on motility of mouse melanoma B16/Fl cells in an in vitro Matri gel-coated transwell assay system at 0.001 uM concentration expressed as percent migration.
A short description of test [7]: The compound was tested for inhibitory effect on motility of mouse melanoma B16/Fl cells in an in vitro Matri gel-coated transwell assay system at 0.01 uM concentration expressed as percent migration.

As for `CCCCCCCCCCCCC/C=C/[C@@H](O)[C@@H](N)COP(=O)(O)O`, the Migration is 8% in test [1]; 34% and 41% in test [2]; 10% in test [3]; 6% and 12% in test [4]; 82% in test [5]; 122% in test [6]. In test [7], the Migration was 12% and 17%.

For the molecule `CCCCCCCCCCCCC/C=C/[C@@H](O)[C@@H](N)CO` [SPHINGOSINE], the Migration in test [1] was 78%; in test [2], 12%; in test [4], 90%.
